Experiments:
Experiment in all cases: relative viability (nuclei count vs DMSO), 5 days (fraction); higher = more cells survive
BI-D1870 + Dasatinib = compound: CC(C)CCN1c2nc(Nc3cc(F)c(O)c(F)c3)ncc2N(C)C(=O)C1C [BI-D1870] + Cc1nc(Nc2ncc(C(=O)Nc3c(C)cccc3Cl)s2)cc(N2CCN(CCO)CC2)n1 [Dasatinib] (partner 0.075 µM)
Outline: (§1)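 The day after seeding in 1536-well plates, lung cancer cell lines were treated by pin tool with a single drug, or with a fixed anchor-drug dose together with five library-drug doses (not always all listed) in √10 steps. After 5 days, a combined fix-and-stain solution (final 0.05% Triton X-100, 1% formaldehyde, 1 ug/ml Hoechst) was added. Nuclei counted on 4× images gave relative viability as treated counts over vehicle counts, reported as the median of duplicate plates.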

Zebularine + Trametinib = compound: O=c1ncccn1[C@@H]1O[C@H](CO)[C@@H](O)[C@H]1O [Zebularine] + CC(=O)Nc1cccc(-n2c(=O)n(C3CC3)c(=O)c3c(Nc4ccc(I)cc4F)n(C)c(=O)c(C)c32)c1 [Trametinib] (partner 0.02 µM)
Outline: as §1

Zebularine + Foretinib = compound: O=c1ncccn1[C@@H]1O[C@H](CO)[C@@H](O)[C@H]1O [Zebularine] + COc1cc2c(Oc3ccc(NC(=O)C4(C(=O)Nc5ccc(F)cc5)CC4)cc3F)ccnc2cc1OCCCN1CCOCC1 [Foretinib] (partner 0.25 µM)
Outline: as §1

Zebularine + Pictilisib = compound: O=c1ncccn1[C@@H]1O[C@H](CO)[C@@H](O)[C@H]1O [Zebularine] + CS(=O)(=O)N1CCN(Cc2cc3nc(-c4cccc5[nH]ncc45)nc(N4CCOCC4)c3s2)CC1 [Pictilisib] (partner 1 µM)
Outline: as §1

Cell Line	relative viability (BI-D1870 + Dasatinib; first compound 0.04 µM)	relative viability (BI-D1870 + Dasatinib; first compound 0.1265 µM)	relative viability (BI-D1870 + Dasatinib; first compound 0.4 µM)	relative viability (BI-D1870 + Dasatinib; first compound 1.265 µM)	relative viability (BI-D1870 + Dasatinib; first compound 4 µM)	relative viability (Zebularine + Trametinib; first compound 1 µM)	relative viability (Zebularine + Trametinib; first compound 3.162 µM)	relative viability (Zebularine + Trametinib; first compound 10 µM)	relative viability (Zebularine + Trametinib; first compound 31.62 µM)	relative viability (Zebularine + Trametinib; first compound 100 µM)	relative viability (Zebularine + Foretinib; first compound 1 µM)	relative viability (Zebularine + Foretinib; first compound 3.162 µM)	relative viability (Zebularine + Foretinib; first compound 10 µM)	relative viability (Zebularine + Foretinib; first compound 31.62 µM)	relative viability (Zebularine + Foretinib; first compound 100 µM)	relative viability (Zebularine + Pictilisib; first compound 1 µM)	relative viability (Zebularine + Pictilisib; first compound 3.162 µM)	relative viability (Zebularine + Pictilisib; first compound 10 µM)	relative viability (Zebularine + Pictilisib; first compound 31.62 µM)	relative viability (Zebularine + Pictilisib; first compound 100 µM)
SK-LU-1	0.18	0.165	0.132	0.229	0.153	0.52	0.485	0.412	0.446	0.371	0.884	0.8	0.47	0.651	0.444	0.63	0.495	0.393	0.501	0.31
ChaGo-K-1	0.662	0.516	0.606	0.549	0.51	0.913	0.874	0.438	0.246	0.204	0.939	0.824	0.337	0.252	0.203	0.896	0.557	0.466	0.447	0.27
COR-L 105	0.303	0.294	0.485	0.322	0.384	0.517	0.394	0.439	0.459	0.396	1.02	0.938	0.755	1.33	0.91	0.388	0.381	0.373	0.464	0.41
NCI-H1975	0.497	0.314	0.359	0.399	0.295	0.298	0.268	0.338	0.283	0.222	0.961	0.889	0.362	0.292	0.2	0.305	0.313	0.291	0.253	0.175
NCI-H1993	0.663	0.48	0.697	0.868	0.467	0.55	0.506	0.51	0.574	0.367	0.843	0.697	0.718	0.753	0.704	0.962	0.8	–	0.89	0.847
RERF-LC-KJ	0.968	0.72	0.762	0.814	0.495	1.02	0.89	0.719	0.87	0.916	1	0.879	–	0.895	0.871	0.662	0.485	0.348	0.565	0.474
NCI-H23	0.923	0.741	0.692	0.588	0.579	0.486	0.443	–	0.405	0.412	1.09	1.1	0.658	0.893	0.854	0.536	0.444	–	0.499	0.436

Source: the supplement of paper PMC10307832
